Counter-ions that a name gives are not always drawn.
molecular target: HPK1 (Homo sapiens (Human), UniProt Q92918); assay: HPK1 biochemical enzyme assay (microfluidic mobility shift assay); details: 1.5 nM HPK1, ATP 1 mM final, 30 min preincubation, 60 min at RT, Caliper EZ Reader; read-out: HPK1 1000UMATP caliper IC50
Method in brief: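 Ten-point compound titrations (top 3 μM final) preincubated 30 min with HPK1 and substrate, then reaction started with 1 mM ATP and 1 μM substrate, 5 mM MgCl2. After 60 min at RT, reaction terminated and product measured by microfluidic mobility shift.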

HPK1, sequence (Q92918 whole entry): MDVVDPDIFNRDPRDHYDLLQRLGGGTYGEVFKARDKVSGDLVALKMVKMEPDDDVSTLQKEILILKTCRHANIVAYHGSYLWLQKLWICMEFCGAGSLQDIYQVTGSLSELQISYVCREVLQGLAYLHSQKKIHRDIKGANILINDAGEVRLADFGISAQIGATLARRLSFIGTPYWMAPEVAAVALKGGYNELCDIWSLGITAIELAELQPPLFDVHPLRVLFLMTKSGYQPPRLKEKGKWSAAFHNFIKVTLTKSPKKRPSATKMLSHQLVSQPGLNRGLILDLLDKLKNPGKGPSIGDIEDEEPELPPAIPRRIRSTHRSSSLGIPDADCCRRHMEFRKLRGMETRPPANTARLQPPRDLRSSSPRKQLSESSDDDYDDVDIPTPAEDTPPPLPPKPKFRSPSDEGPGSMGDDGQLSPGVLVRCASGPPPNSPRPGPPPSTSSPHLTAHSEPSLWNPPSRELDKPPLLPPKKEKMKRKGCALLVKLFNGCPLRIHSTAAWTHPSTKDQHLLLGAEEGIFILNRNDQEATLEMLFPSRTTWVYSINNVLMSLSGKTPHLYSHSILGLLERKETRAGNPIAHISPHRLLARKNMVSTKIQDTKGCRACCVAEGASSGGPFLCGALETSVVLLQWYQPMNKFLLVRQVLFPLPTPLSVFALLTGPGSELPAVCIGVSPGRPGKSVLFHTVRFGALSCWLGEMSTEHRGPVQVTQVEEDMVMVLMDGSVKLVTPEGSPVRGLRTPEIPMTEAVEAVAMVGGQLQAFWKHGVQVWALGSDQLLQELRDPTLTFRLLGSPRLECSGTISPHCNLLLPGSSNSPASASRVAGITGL

`Cc1cccc2c(-c3ccc(Nc4ccc(N5CCN(C)CC5)cn4)c4c3CNC4=O)cnn12` [I-69, 7-[[5-(4-methylpiperazin-1-yl)-2-pyridyl]amino]-4-(7-methylpyrazolo [1,5-a]pyridin-3-yl)isoindolin-1-one] was tested. Which IC50 did it give?
The IC50 was < 100 nM.

For `CN(C)C(C)(C)C1CN(c2ccc(Nc3cnc(-c4ccnc5c4ccn5C)c4c3C(=O)NC4)nc2)CCO1` (stereo not drawn) [I-668], which IC50 is on record?
Its IC50 is < 100 nM.

How did the IC50 turn out when `Cc1ccn2c(-c3ccc(Nc4ccc(N5CC[C@@H](F)[C@H](O)C5)cn4)c4c3CNC4=O)cnc2c1F` [I-583, 7-((5-((3R,4R]-4-fluoro-3-hydroxypiperidin-1-yl)pyridin-2-yl)amino)-4-(8-fluoro-7-methylimidazo [1,2-a]pyridin-3-yl)isoindolin-1-one] was run?
The IC50 was < 100 nM.

How did the IC50 turn out when `CN(C)Cc1nc(Nc2cnc(-c3ccnc4c3ccn4C)c3c2C(=O)NC3)ccc1N1CCOCC1` [I-768, 7-((6-((dimethylamino)-methyl)-5-morpholinopy-ridin-2-yl)amino)-4-(1-methyl-1H-pyrrolo[2,3-b]pyridin-4-yl)-2,3-dihydro-1H-pyrrolo[3,4-c]pyridin-1-one] was run?
Its IC50 is < 100 nM.

Which IC50 does the source give for `O=C1NCc2c(-c3cnc4cc(F)ccn34)ccc(Nc3ccc([C@H]4CCOC4)c(CN4CCOCC4)n3)c21` (stereo in doubt) [I-720, (SMK7-fluoroimidazo [1,2-a]pyridin-3-yl)-7-((6-(morpholinomethyl)-5-(tetrahydrofuran-3-yl)pyridin-2-yl)amino)isoin-dolin-1-one] here?
Its IC50 is < 100 nM.

Which IC50 does the source give for `COc1cc(Nc2cnc(-c3ccnc4c3ccn4C)c3c2C(=O)NC3)nc(N2CC[C@H]3CNC[C@H]32)c1` [I-681, 7-((6-((3aS, 6aS)-hexahydropyrrolo[3,4-b]pyrrol-1(2H)-yl)-4-methoxypyridin-2-yl)amino)-4-(1-methyl-1H-pyrrolo[2,3-b]pyridin-4-yl)-2,3-dihydro-1H-pyrrolo[3,4-c]pyridin-1-one] here?
Its IC50 is < 100 nM.

`CN1CCN(c2ccc(Nc3ccc(-c4ncnc5c4ccn5C)c4c3C(=O)NC4)nc2)CC1` [I-83, 7-[[5-(4-methylpiperazin-1-yl)-2-pyridyl]amino]-4-(7-methylpyrrolo [2,3-d]pyrimidin-4-yl)isoindolin-1-one] was tested. Which IC50 did it give?
The IC50 was < 100 nM.

Which IC50 does the source give for `Cc1ccc2c(-c3ccc(Nc4ccc(N5CCN(C)CC5)cn4)c4c3CNC4=O)c[nH]c2n1` [I-29, 7-[[5-(4-methylpiperazin-1-yl)-2-pyridyl]amino]-4-(6-methyl-1H-pyrrolo[2,3-b]pyridin-3-yl)-isoindolin-1-one] here?
The IC50 was < 100 nM.

Which IC50 does the source give for `COCC1CN(c2ccc(Nc3ccc(-c4cnc5nc(C)ccn45)c4c3C(=O)NC4)nc2)CCO1` (stereo in doubt) [I-629, (S)-7-((5-(2-(methoxymeth-yl)morpho-lino)pyridin-2-yl)amino)-4-(7-methylimidazo [1,2-a]pyrimidin-3-yl) isoindolin-1-one] here?
The IC50 was < 100 nM.

For `O=C1NCc2c(-c3cnc4cc(C(F)F)ccn34)ccc(Nc3ccc(N4CCC(O)CC4)cn3)c21` [I-194, 4-[7-(difluorometh-yl)imidazo[1,2-a]pyridin-3-yl]-7-[[5-(4-hydroxy-1-piperidyl)-2-pyripyl]amino] isoindolin-1-one], which IC50 is on record?
The IC50 was < 100 nM.

`CN1CC(O)(C2CCCN(c3ccc(Nc4ccc(-c5cnc6cc(F)ccn56)c5c4C(=O)NC5)nc3)C2)C1` (stereo in doubt) [I-678, (R)-4-(7-fluoroimidazo [1,2-a]pyridin-3-yl)-7-((5-(3-(3-hydroxy-1-methylazetidin-3-yl)piperidin-1-yl)pyridin-2-yl)amino)isoin-dolin-1-one] was tested. Which IC50 did it give?
The IC50 was < 100 nM.

For `Cc1cccc2c(-c3ccc(Nc4ccc(N5CCNCC5)cn4)c4c3CNC4=O)cnn12` [I-84, 4-(7-methylpyrazolo [1,5-a]pyridin-3-yl)-7-[(5-piperazin-1-yl-2-pyridyl)amino] isoindolin-1-one], which IC50 is on record?
The IC50 was < 100 nM.

How did the IC50 turn out when `O=C1NCc2c(-c3cnc4c(F)cccn34)ncc(Nc3ccc(N4CC[C@@H](F)[C@@H](O)C4)cn3)c21` [I-659] was run?
The IC50 was < 100 nM.

How did the IC50 turn out when `Cn1ccc2c(-c3ncc(Nc4ccc(N5CCC[C@H](C(C)(C)O)C5)cn4)c4c3CNC4=O)cccc21` [I-216, 7-[[5-[(3S)-3-(1-hydroxy-1-methyl-ethyl)-1-piperidyl]-2-pyridyl]-amino]-4-(1-methylindol-4-yl)-2,3-dihydropyrrolo [3,4-c]pyridin-1-one] was run?
The IC50 was < 100 nM.

With `CC(C)(O)[C@H]1CCCN(c2ccc(Nc3ccc(-c4cnc5cnccn45)c4c3C(=O)NC4)nc2)C1` [I-310, (S)-7-((5-(3-(2-hydroxypropan-2-yl)piperidin-1-yl)pyridin-2-yl)amino)-4-(imidazo[1,2-a]pyrazin-3-yl)isoindolin-1-one] as the molecule, how does the IC50 read?
Its IC50 is < 100 nM.

How did the IC50 turn out when `COC[C@H]1CN(c2ccc(Nc3ccc(-c4cnc5cc(F)ccn45)c4c3C(=O)NC4)nc2)CCO1` [I-421, (R)-4-(7-fluoroimidazo [1,2-a]pyridin-3-yl)-7-((5-(2-(methoxymeth-yl)morpholino)pyridin-2-yl)amino)isoin-dolin-1-one] was run?
Its IC50 is < 100 nM.

How did the IC50 turn out when `O=C1NCc2c(-c3cnc4cc(F)ccn34)ccc(Nc3ccc(N4CCOC[C@@H](O)C4)cn3)c21` [I-339, (S)-4-(7-fluoroimidazo [1,2-a]pyridin-3-yl)-7-((5-(6-hydroxy-1,4-oxazepan-4-yl)pyridin-2-yl)amino)isoin-dolin-1-one] was run?
The IC50 was < 100 nM.

`Cn1ccc2c(-c3ncc(Nc4ccc(N5CCC[C@@H](C(C)(C)O)C5)cn4)c4c3CNC4=O)cccc21` [I-223, 7-[[5-[(3R)-3-(1-hydroxy-1-methyl-ethyl)-1-piperipyl]-2-pyridyl]-amino]-4-(1-methylindol-4-yl)-2,3-dihydropyrrolo [3,4-c]pyridin-1-one] was tested. Which IC50 did it give?
Its IC50 is < 100 nM.

For `CO[C@@H]1CCN(Cc2nc(Nc3ccc(-c4cnc5cc(F)ccn45)c4c3C(=O)NC4)ccc2[C@@H]2CCOC2)C1` [I-781, 4-(7-fluoroimidazo [1,2-a]pyridin-3-yl)-7-((6-(((R)-3-methoxypyrrol-idin-1-yl)methyl)-5-((S)-tetrahydrofuran-3-yl)pyridin-2-yl)amino)isoin-dolin-1-one], which IC50 is on record?
Its IC50 is < 100 nM.

For `Cc1nccn2c(-c3ccc(Nc4ccc(N5CCC(O)CC5)cn4)c4c3CNC4=O)cnc12` [I-158, 7-[[5-(4-hydroxy-1-piperidyl)-2-pyridyl]amino]-4-(8-methylimidazo [1,2-a]pyrazin-3-yl)isoindolin-1-one], which IC50 is on record?
The IC50 was < 100 nM.

With `CC(C)n1ccc2c(-c3ccc(Nc4ccc(N5CCN(C)CC5)cn4)c4c3CNC4=O)ccnc21` [I-48, 4-(1-isopropylpyrrolo [2,3-b]pyridin-4-yl)-7-[[5-(4-methylpiperazin-1-yl)-2-pyridyl]amino] isoindolin-1-one] as the molecule, how does the IC50 read?
Its IC50 is 100 to 1000 nM.

For `CC(C)NCc1nc(Nc2cnc(-c3ccnc4c3ccn4C)c3c2C(=O)NC3)ccc1C1CCOCC1` [I-844, 7-[[6-[(isopropylamino)-methyl]-5-tetrahydropy-ran-4-yl-2-pyridyl]amino]-4-(1-methylpyrrolo [2,3-b]pyridin-4-yl)-2,3-dihydropyrrolo [3,4-c]pyridin-1-one Formic acid salt], which IC50 is on record?
The IC50 was < 100 nM.

Which IC50 does the source give for `Cc1ccn2c(-c3ccc(Nc4ccc(CN5CCOCC5)cn4)c4c3CNC4=O)cnc2c1F` [I-468, 4-(8-fluoro-7-methyl-imidazo[1,2-a]pyridin-3-yl)-7-[[5-(morpholino-methyl)-2-pyridyl]amino] isoindolin-1-one] here?
The IC50 was < 100 nM.

For `COc1cccn2c(-c3ncc(Nc4ccc(N5CCC[C@H](C(C)(C)O)C5)cn4)c4c3CNC4=O)cnc12` [I-461, 7-[[5-[(3S)-3-(1-hydroxy-1-methylethyl)-1-piperipyl]-2-pyridyl]amino]-4-(8-methoxyimi-dazo[1,2-a]pyridin-3-yl)-2,3-dihydro-pyrrolo[3,4-c]pyridin-1-one], which IC50 is on record?
The IC50 was < 100 nM.

For `CN1CCC(O)(c2ccc(Nc3ccc(-c4ccnc5c4ccn5C)c4c3C(=O)NC4)nc2)CC1` [I-274, 7-((5-(4-hydroxy-1-methylpiperidin-4-yl)pyridin-2-yl)amino)-4-(1-methyl-1H-pyrrolo[2,3-b]pyridin-4-yl)isoindolin-1-one], which IC50 is on record?
Its IC50 is < 100 nM.

`CN1CCC[C@@H](c2cccc(Nc3cnc(-c4ccnc5c4ccn5C)c4c3C(=O)NC4)n2)C1` [I-420, (R]-4-(1-methyl-1H-pyrrolo[2,3-b]pyridin-4-yl)-7-((6-(1-methylpiperidin-3-yl)pyridin-2-yl)amino)-2.3-dihydro-1H-pyrrolo[3,4-c]pyridin-1-one] was tested. Which IC50 did it give?
The IC50 was < 100 nM.

Which IC50 does the source give for `CC(C)(O)[C@@H]1CN(c2ccc(Nc3cnc(-c4cnc5c(F)cccn45)c4c3C(=O)NC4)nc2)CCO1` [I-483, 4-(8-fluoroimidazo [1,2-a]pyridin-3-yl)-7-[[5-[(2S)-2-(1-hydroxy-1-methyl-ethyl)morpholin-4-yl]-2-pyridyl]amino]-2,3-dihydropyrrolo [3,4-c]pyridin-1-one] here?
Its IC50 is < 100 nM.

With `Cn1cc2c(-c3ccc(Nc4ccc(N5CCC(O)CC5)cn4)c4c3CNC4=O)cnc-2cn1` [I-422, 7-((5-(4-hydroxy-piperidin-1-yl)pyridin-2-yl)amino)-4-(5-methyl-5H-pyrrolo[2,3-d]pyridazin-3-yl)isoindolin-1-one] as the molecule, how does the IC50 read?
Its IC50 is 100 to 1000 nM.

How did the IC50 turn out when `Cc1ccn2c(-c3ccc(Nc4ccc(N5CCC(O)CC5)cn4)c4c3CNC4=O)cnc2c1F` [I-151] was run?
Its IC50 is < 100 nM.

With `CNC1CCN(c2ccc(Nc3ccc(-c4cnc5cc(C)ccn45)c4c3C(=O)NC4)nc2)CC1` [I-71, 7-[[5-[4-(methylamino)-1-piperidyl]-2-pyridyl]amino]-4-(7-methylimidazo [1,2-a]pyridin-3-yl)isoindolin-1-one] as the molecule, how does the IC50 read?
Its IC50 is < 100 nM.

`COCCN(C)Cc1nc(Nc2ccc(-c3cnc4cc(F)ccn34)c3c2C(=O)NC3)ccc1C1CCOC1` (stereo in doubt) [I-727, (R)-4-(7-fluoroimidazo [1,2-a]pyridin-3-yl)-7-((6-(((2-methoxyethyl) (methyl)-amino)methyl)-5-(tetrahydrofuran-3-yl)pyridin-2-yl)amino)isoin-dolin-1-one] was tested. Which IC50 did it give?
Its IC50 is < 100 nM.

How did the IC50 turn out when `O=C1NCc2c(-c3cnc4cnccn34)ccc(Nc3ccc(N4CCC(O)CC4)cn3)c21` [I-133, 7-[[5-(4-hydroxy-1-piperidyl)-2-pyridyl]amino]-4-imidazo[1,2-a]pyrazin-3-yl-isoindolin-1-one] was run?
The IC50 was < 100 nM.

How did the IC50 turn out when `CN(C)Cc1nc(Nc2ccc(-c3cnc4cc(F)ccn34)c3c2C(=O)NC3)ccc1O[C@@H]1CCOC1` [I-533] was run?
Its IC50 is < 100 nM.

From patent US11021481B2, “Substituted isoindolin-1-ones and 2,3-dihydro-1h-pyrrolo[3,4-c]pyridin-1-ones as HPK1 antagonists” (Nimbus Saturn, Inc., priority 2019, dated 2021)
